Results reported in patent publication US9365613B2, “Acylated 4-amidino- and -4-guanidinobenzylamines for inhibition of plasma kallikrein” (The Medicines Company (Leipzig) GmbH, priority 2003, dated 2016).

Assays:
[1] = target: PK (Homo sapiens, UniProt P03952); conditions: read-out: Ki PK (literature); cited from earlier work
[2] = target: plasma kallikrein (PK) (Homo sapiens, UniProt P03952); test: Determining the inhibitory constants: inhibition of PK (substrate Bzl-Pro-Phe-Arg-pNA); type: biochemical; conditions: Tris buffer pH 8.0, 25° C.; mean of at least three determinations
Procedure: (§1) The inhibitory effect for the individual enzymes was determined in analogy with a method which has already been described (Stürzebecher et al., J. Med. Chem. 40, 3091-3099, 1997).
(§2) After 3 min, the reaction was terminated by adding 25 μl of acetic acid (50%) and the absorption at […] was determined using a Microplate Reader (Labsystems iEMS Reader MF). The Ki values were determined, in accordance with Dixon (Biochem. J. 55, 170-171, 1953), by means of linear regression and using a computer program. The Ki values are the mean of at least three determinations.

[3] = target: T1, human factor XIIa (Homo sapiens, UniProt P00748); test: Inhibitory constants for factor XIIa (substrate H-D-HHT-Gly-Arg-pNA, Chromozym XII); type: biochemical; conditions: read-out: Ki F XIIa
T1 construct: purchased Haemochrom Diagnostica GmbH, Essen, Germany
Procedure: as §1, §2
(§3) The inhibition of factor XIa and factor XIIa was determined in an analogous manner. When determining the inhibitory constants for human factor XIa (Haemochrom Diagnostica GmbH, Essen, Germany), H-D-Lys(Z)-Pro-Arg-pNA (Chromozym PCa, Roche Diagnostics GmbH, Mannheim, Germany) was used as the substrate.
H-D-HHT-Gly-Arg-pNA (Chromozym XII, Roche Diagnostics GmbH, Mannheim, Germany) was used as the substrate for measuring the inhibitory constants of human factor XIIa (Haemochrom Diagnostica GmbH, Essen, Germany).

[4] = target: T2, human factor XIa (Homo sapiens, UniProt P03951); test: Inhibitory constants for factor XIa (substrate H-D-Lys(Z)-Pro-Arg-pNA, Chromozym PCa); type: biochemical; conditions: read-out: Ki F XIa
T2 construct: purchased Haemochrom Diagnostica GmbH, Essen, Germany
Procedure: as §1, §2, §3

[5] = target: thrombin (UniProt P00735); test: Inhibitory constants for thrombin; type: biochemical; conditions: read-out: Ki Thrombin

Sequence of PK (P03952 391-638 limits assumed): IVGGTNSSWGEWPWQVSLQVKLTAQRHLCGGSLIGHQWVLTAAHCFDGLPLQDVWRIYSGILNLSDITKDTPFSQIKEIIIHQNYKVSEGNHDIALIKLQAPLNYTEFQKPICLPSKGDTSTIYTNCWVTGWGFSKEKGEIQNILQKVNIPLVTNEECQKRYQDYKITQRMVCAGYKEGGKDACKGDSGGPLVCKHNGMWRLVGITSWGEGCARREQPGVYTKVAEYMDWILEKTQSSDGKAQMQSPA
Sequence of PK (P03952 20-390 partner limits assumed): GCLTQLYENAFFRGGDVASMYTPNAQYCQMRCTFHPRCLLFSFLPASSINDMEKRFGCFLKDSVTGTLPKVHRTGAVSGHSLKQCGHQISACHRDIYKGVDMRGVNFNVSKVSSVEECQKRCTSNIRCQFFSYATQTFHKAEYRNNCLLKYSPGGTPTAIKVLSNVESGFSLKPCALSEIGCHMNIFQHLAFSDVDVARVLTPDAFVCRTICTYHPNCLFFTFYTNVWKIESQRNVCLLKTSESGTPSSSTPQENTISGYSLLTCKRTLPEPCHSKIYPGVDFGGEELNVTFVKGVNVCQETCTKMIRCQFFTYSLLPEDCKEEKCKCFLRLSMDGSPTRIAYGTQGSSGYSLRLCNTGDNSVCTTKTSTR
Sequence of plasma kallikrein (PK) (P03952 391-638 limits assumed, species assumed): as the sequence (P03952 391-638 limits assumed) above
Sequence of plasma kallikrein (PK) (P03952 20-390 partner limits assumed, species assumed): as the sequence (P03952 20-390 partner limits assumed) above
T1 sequence (P00748 373-615 limits assumed, other chains not shown): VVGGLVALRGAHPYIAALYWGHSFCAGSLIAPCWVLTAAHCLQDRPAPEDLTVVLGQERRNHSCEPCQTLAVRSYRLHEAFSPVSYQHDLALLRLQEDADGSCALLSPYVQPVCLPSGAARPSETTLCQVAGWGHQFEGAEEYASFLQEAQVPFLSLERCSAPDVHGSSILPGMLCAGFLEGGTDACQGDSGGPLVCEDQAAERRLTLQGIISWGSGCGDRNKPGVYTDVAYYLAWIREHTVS
T2 sequence (P03951 388-625 limits assumed): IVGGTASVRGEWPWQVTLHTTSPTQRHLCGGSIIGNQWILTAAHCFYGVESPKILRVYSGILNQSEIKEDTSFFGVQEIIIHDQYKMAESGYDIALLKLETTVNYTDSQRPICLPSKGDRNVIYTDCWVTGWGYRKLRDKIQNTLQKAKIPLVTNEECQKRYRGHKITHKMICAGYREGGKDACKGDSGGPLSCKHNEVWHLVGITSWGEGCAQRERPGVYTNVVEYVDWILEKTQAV
T2 sequence (P03951 19-387 partner limits assumed): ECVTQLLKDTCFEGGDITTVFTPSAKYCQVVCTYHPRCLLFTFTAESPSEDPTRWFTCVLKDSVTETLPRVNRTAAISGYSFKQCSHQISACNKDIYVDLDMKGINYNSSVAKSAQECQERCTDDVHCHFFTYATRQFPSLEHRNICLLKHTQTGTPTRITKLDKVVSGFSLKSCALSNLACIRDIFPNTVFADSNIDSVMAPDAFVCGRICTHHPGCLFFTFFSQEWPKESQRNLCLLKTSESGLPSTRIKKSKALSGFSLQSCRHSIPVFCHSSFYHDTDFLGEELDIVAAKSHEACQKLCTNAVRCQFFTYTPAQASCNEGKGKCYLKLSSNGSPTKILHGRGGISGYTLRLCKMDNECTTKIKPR

Row | Ki [2] | Ki [3] | Ki [4] | Ki [5] | Compound | Ki [1]
1 |  |  |  |  | CC(C)(C)C(NC(=O)OC12CC3CC(CC(C3)C1)C2)C(=O)NC(Cc1ccccc1)C(=O)NC(CCCNC(=N)N)C(=O)C(F)(F)F [adamantyloxycarbonyl-D-tert-butylglycine-Phe-Arg-CF3] | 2 nM
2 |  |  |  |  | N=C(N)NCCCC(C=O)NC(=O)C(Cc1ccccc1)NC(=O)C(Cc1ccccc1)NC(=O)OC12CC3CC(CC(C3)C1)C2 [adamantyloxycarbonyl-D-Phe-Phe-arginal] | 12 nM
3 | 8.2 nM | 80 µM | 610 nM | 0.5 µM | CC(C)(C)OCC(NS(=O)(=O)Cc1ccccc1)C(=O)NC(CCOCc1ccccc1)C(=O)NCc1ccc(C(=N)N)cc1 (centres unmarked) [Inhibitor 43] | 
4 |  |  |  |  | CC(=O)N[C@H](Cc1ccccc1)C(=O)N1CCC[C@H]1C(=O)N[C@@H](CCCN=C(N)N)B(O)O [DuP 714, Ac-D-Phe-Pro-boroarginine] | 1.6 nM
5 | 47 nM | 25 µM | 130 nM | 0.49 µM | N=C(N)c1ccc(CNC(=O)[C@H](CCC(N)=O)NC(=O)[C@@H](CO)NS(=O)(=O)Cc2ccccc2)cc1 [Inhibitor 6] | 
6 | 44 nM | 17 µM | 400 nM | 0.019 µM | C[C@@H](OCc1ccccc1)[C@H](NC(=O)[C@@H](COC(C)(C)C)NS(=O)(=O)Cc1ccccc1)C(=O)NCc1ccc(C(=N)N)cc1 [Inhibitor 39] | 
7 | 90 nM | 0.47 µM | 170 nM | 0.0032 µM | N=C(N)c1ccc(CNC(=O)[C@@H]2CCCN2C(=O)[C@@H](CC2CCCCC2)NS(=O)(=O)Cc2cccc(CN)c2)cc1 [Inhibitor 55] | 
8 | 15 nM | 0.98 µM | 40 nM | 0.015 µM | N=C(N)c1ccc(CNC(=O)[C@H](CCC(=O)NCCCOCCOCCOCCCN)NC(=O)[C@@H](CC2CCCCC2)NS(=O)(=O)Cc2ccccc2)cc1 [Inhibitor 59] | 
9 | 8000 nM | > 1000 µM | 8200 nM | > 1000 µM | CC(C)(C)OC[C@@H](NS(=O)(=O)Cc1ccccc1)C(=O)NC(CC(=O)O)CC(=O)NCc1ccc(C(=N)N)cc1 (some centres unmarked) [Inhibitor 32] | 
10 | 82 nM | 0.19 µM | 250 nM | 0.085 µM | N=C(N)c1ccc(CNC(=O)CNC(=O)[C@@H](Cc2cccc(C(=N)N)c2)NS(=O)(=O)Cc2ccccc2)cc1 [Inhibitor 77] | 
11 | 6300 nM | 17 µM | 6000 nM | 8 µM | N=C(N)c1ccc(CNC(=O)CNC(=O)[C@@H](CO)NS(=O)(=O)Cc2ccc(CN)cc2)cc1 [Inhibitor 25] | 
12 | 29 nM | > 1000 µM | 170 nM | 120 µM | N=C(N)c1ccc(CNC(=O)[C@H](CO)NC(=O)[C@@H](CO)NS(=O)(=O)Cc2ccc(C(=O)O)cc2)cc1 [Inhibitor 23] | 
13 | 9.4 nM | 5.4 µM | 480 nM | 0.024 µM | CC(C)(C)OC[C@@H](NS(=O)(=O)Cc1ccccc1)C(=O)N[C@@H](CCCCNC(=O)OCc1ccccc1)C(=O)NCc1ccc(C(=N)N)cc1 [Inhibitor 36] | 
14 | 54 nM | 4.7 µM | 79 nM | 0.0043 µM | COC(=O)c1ccc(CS(=O)(=O)N[C@H](COC(C)(C)C)C(=O)N[C@@H](C)C(=O)NCc2ccc(C(=N)N)cc2)cc1 [Inhibitor 49] | 
15 | 42 nM | 13 µM | 280 nM | 6.9 µM | N=C(N)c1ccc(CNC(=O)[C@H](CNC(=O)OCc2ccccc2)NC(=O)[C@@H](CO)NS(=O)(=O)Cc2ccccc2)cc1 [Inhibitor 9] | 
16 | 20 nM | 4 µM | 340 nM | 0.015 µM | N=C(N)c1ccc(CNC(=O)[C@H](CCCCNC(=O)OCc2ccccc2)NC(=O)[C@@H](CC2CCCCC2)NS(=O)(=O)Cc2ccccc2)cc1 [Inhibitor 54] | 
17 | 1100 nM | 4.8 µM | 1600 nM | 0.36 µM | COC(=O)c1ccc(CS(=O)(=O)N[C@H](COC(C)(C)C)C(=O)NCC(=O)NCc2ccc(C(=N)N)cc2)cc1 [Inhibitor 47] | 
